Values joined by “and” are separate entries in the source; they are usually repeats but may differ in a detail not shown here. Equal values may be shown once. Toxic doses and inconclusive results are not listed.

Among the data in PubChem BioAssay AID248 (DTP/NCI, 2004) are T/C values, retold here.

For this test, the system named is L1210 leukemia ip in BDF1 mice, survival T/C. The experiment in a line: NCI In Vivo Anticancer Drug Screen. Data for tumor model L1210 Leukemia (intraperitoneal) in B6D2F1 (BDF1) mice. The conditions noted are these: endpoint: mean survival time, higher = longer survival. In a few lines: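 Transplantable tumor model; survival measured in treated vs vehicle control mice. Value = treated/control.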

Where [1] appears, read: dose: 100.0 mg/kg/injection, schedule: Q04DX003 (ip), vehicle: saline with Tween-80.
[2] abbreviates: dose: 200.0 mg/kg/injection, schedule: Q04DX003 (ip), vehicle: saline with Tween-80.
Setting [3] is: dose: 400.0 mg/kg/injection, schedule: Q04DX003 (ip), vehicle: saline with Tween-80.

`Nc1nc(F)nc2c1ncn2C1OC(CO)C(O)C1O` (stereo not given): the T/C by setting is: (dose: 0.75 mg/kg/injection, schedule: Q01DX Z (ip), vehicle: saline) 106 % of control; (dose: 1.0 mg/kg/injection, schedule: Q01DX015 (ip), vehicle: saline) 104 % of control; (dose: 1.5 mg/kg/injection, schedule: Q01DX Z (ip), vehicle: saline) 112 % of control; (dose: 1.6 mg/kg/injection, schedule: Q01DX015 (ip), vehicle: saline) 98 % of control; (dose: 2.4 mg/kg/injection, schedule: Q01DX015 (ip), vehicle: saline) 96 % of control; (dose: 3.0 mg/kg/injection, schedule: Q01DX Z (ip), vehicle: saline) 104 % of control. In addition, the T/C is 96 % of control (dose: 3.6 mg/kg/injection, schedule: Q01DX015 (ip), vehicle: saline); 87 % of control (dose: 5.4 mg/kg/injection, schedule: Q01DX015 (ip), vehicle: saline); 113 % of control (dose: 6.0 mg/kg/injection, schedule: Q01DX Z (ip), vehicle: saline); 205 % of control (dose: 65.0 mg/kg/injection, schedule: Q03HX024 (ip), vehicle: saline with Tween-80); 160 % of control (dose: 65.0 mg/kg/injection, schedule: Q06HX012 (ip), vehicle: saline with Tween-80); 291 % of control (dose: 80.0 mg/kg/injection, schedule: Q03HX024 (ip), vehicle: saline with Tween-80). Moreover, the T/C reads like this: (dose: 80.0 mg/kg/injection, schedule: Q06HX012 (ip), vehicle: saline with Tween-80) 177 % of control; (dose: 90.0 mg/kg/injection, schedule: Q03HX024 (ip), vehicle: saline with Tween-80) 276 % of control; (dose: 100.0 mg/kg/injection, schedule: Q01DX001 (ip), vehicle: saline) 105 % of control; (dose: 100.0 mg/kg/injection, schedule: Q03HX024 (ip), vehicle: saline with Tween-80) 301 % of control and 357 % of control (2×); (dose: 100.0 mg/kg/injection, schedule: Q03HX024 (oral), vehicle: saline with Tween-80) 160 % of control; (dose: 110.0 mg/kg/injection, schedule: Q03HX024 (ip), vehicle: saline with Tween-80) 157 % of control. Further, the T/C was 100 % of control (dose: 125.0 mg/kg/injection, schedule: Q03HX024 (ip), vehicle: saline with Tween-80); 163 % of control (dose: 125.0 mg/kg/injection, schedule: Q06HX012 (ip), vehicle: saline with Tween-80); 83 % of control (dose: 150.0 mg/kg/injection, schedule: Q03HX024 (ip), vehicle: saline with Tween-80); 166 % of control (dose: 150.0 mg/kg/injection, schedule: Q03HX024 (oral), vehicle: saline with Tween-80); 181 % of control and 326 % of control (dose: 150.0 mg/kg/injection, schedule: Q06HX012 (ip), vehicle: saline with Tween-80); 107 % of control (dose: 200.0 mg/kg/injection, schedule: Q01DX001 (ip), vehicle: saline). Moreover, the T/C reads like this: (dose: 200.0 mg/kg/injection, schedule: Q06HX012 (ip), vehicle: saline with Tween-80) 219 % of control; (dose: 250.0 mg/kg/injection, schedule: Q06HX012 (ip), vehicle: saline with Tween-80) 122 % of control; (dose: 300.0 mg/kg/injection, schedule: Q01DX009 (ip), vehicle: saline with Tween-80) 86 % of control; (dose: 300.0 mg/kg/injection, schedule: Q12HX006 (ip), vehicle: saline with Tween-80) 204 % of control and 225 % of control; (dose: 350.0 mg/kg/injection, schedule: Q12HX006 (ip), vehicle: saline with Tween-80) 205 % of control; (dose: 400.0 mg/kg/injection, schedule: Q01DX001 (ip), vehicle: saline) 122 % of control. In addition, the T/C runs as follows: (dose: 400.0 mg/kg/injection, schedule: Q12HX006 (ip), vehicle: saline with Tween-80) 207 % of control and 288 % of control; (dose: 450.0 mg/kg/injection, schedule: Q12HX006 (ip), vehicle: saline with Tween-80) 228 % of control; (dose: 600.0 mg/kg/injection, schedule: Q04DX003 (ip), vehicle: saline with Tween-80) 186 % of control; (dose: 750.0 mg/kg/injection, schedule: Q12HX006 (ip), vehicle: saline with Tween-80) 106 % of control; (dose: 800.0 mg/kg/injection, schedule: Q04DX003 (ip), vehicle: saline with Tween-80) 200 % of control; (dose: 1000.0 mg/kg/injection, schedule: Q04DX003 (ip), vehicle: saline with Tween-80) 205 % of control.

Consider `CC(C)(NC(=O)NCCCl)C(=O)O`, for which the T/C (dose: 100.0 mg/kg/injection, schedule: Q01DX001 (ip), vehicle: Klucel (hydroxypropylcellulose) (HPC)) was 105 % of control; the T/C (dose: 200.0 mg/kg/injection, schedule: Q01DX001 (ip), vehicle: Klucel (hydroxypropylcellulose) (HPC)) was 96 % of control; the T/C (dose: 400.0 mg/kg/injection, schedule: Q01DX001 (ip), vehicle: Klucel (hydroxypropylcellulose) (HPC)) was 94 % of control.

Turning to `CC(=O)OC1C(NC(=O)OCc2ccccc2)CC(NC(=O)OCc2ccccc2)C(O)C1O` (stereo not given), the T/C by setting is: under setting [1], 94 % of control; under setting [2], 88 % of control.

As for `CC1(C)N=C(N)N=C(N)N1c1cccc(CC(=O)Nc2ccccc2)c1`, the T/C (dose: 12.5 mg/kg/injection, schedule: Q01DX009 (ip), vehicle: saline) was 102 % of control; the T/C (dose: 25.0 mg/kg/injection, schedule: Q01DX009 (ip), vehicle: saline) was 98 % of control; the T/C (dose: 50.0 mg/kg/injection, schedule: Q01DX009 (ip), vehicle: saline) is 102 % of control; the T/C (dose: 100.0 mg/kg/injection, schedule: Q01DX009 (ip), vehicle: saline) is 96 % of control; the T/C (dose: 200.0 mg/kg/injection, schedule: Q01DX009 (ip), vehicle: saline) is 98 % of control.

For `COc1cc2cc3c4cc(OC)c(OC)cc4cc[n+]3c(/C=C/c3cccc(O)c3)c2cc1OC`, the T/C was 97 % of control and 108 % of control (dose: 25.0 mg/kg/injection, schedule: Q04DX002 (ip), vehicle: carboxymethylcellulose (CMC)); 101 % of control (dose: 50.0 mg/kg/injection, schedule: Q04DX002 (ip), vehicle: carboxymethylcellulose (CMC)); 102 % of control and 110 % of control (dose: 100.0 mg/kg/injection, schedule: Q01DX001 (ip), vehicle: carboxymethylcellulose (CMC)); 110 % of control and 119 % of control (dose: 200.0 mg/kg/injection, schedule: Q01DX001 (ip), vehicle: carboxymethylcellulose (CMC)); 98 % of control and 114 % of control (dose: 400.0 mg/kg/injection, schedule: Q01DX001 (ip), vehicle: carboxymethylcellulose (CMC)); 105 % of control and 115 % of control (dose: 400.0 mg/kg/injection, schedule: Q04DX002 (ip), vehicle: carboxymethylcellulose (CMC)).

Consider `COc1cc(OC)c(OC)cc1/C=N/Nc1ccc(C(=O)O)cc1`, for which the T/C (dose: 100.0 mg/kg/injection, schedule: Q01DX009 (ip), vehicle: saline with Tween-80) was 95 % of control; the T/C under setting [1] is 96 % of control; the T/C (dose: 200.0 mg/kg/injection, schedule: Q01DX009 (ip), vehicle: saline with Tween-80) was 97 % of control; the T/C under setting [2] is 94 % of control; the T/C (dose: 400.0 mg/kg/injection, schedule: Q01DX009 (ip), vehicle: saline with Tween-80) is 101 % of control; the T/C under setting [3] was 98 % of control.

On to `Cc1nc(C)c(-c2ccc([N+](=O)[O-])cc2)o1`, for which the T/C is 105 % of control (dose: 100.0 mg/kg/injection, schedule: Q01DX001 (ip), vehicle: saline with Tween-80); 105 % of control (dose: 200.0 mg/kg/injection, schedule: Q01DX001 (ip), vehicle: saline with Tween-80); 102 % of control (dose: 400.0 mg/kg/injection, schedule: Q01DX001 (ip), vehicle: saline with Tween-80).

With `N#C/C(=C\c1ccc(-c2ccccc2)cc1)c1ccc(Cl)cc1`, the T/C (dose: 3.13 mg/kg/injection, schedule: Q01DX009 (ip), vehicle: saline with Tween-80) is 98 % of control; the T/C (dose: 6.25 mg/kg/injection, schedule: Q01DX009 (ip), vehicle: saline with Tween-80) is 92 % of control; the T/C (dose: 12.5 mg/kg/injection, schedule: Q01DX009 (ip), vehicle: saline with Tween-80) was 93 % of control and 87 % of control; the T/C (dose: 12.5 mg/kg/injection, schedule: Q04DX003 (ip), vehicle: saline with Tween-80) was 95 % of control; the T/C (dose: 25.0 mg/kg/injection, schedule: Q04DX003 (ip), vehicle: saline with Tween-80) is 95 % of control; the T/C (dose: 50.0 mg/kg/injection, schedule: Q04DX003 (ip), vehicle: saline with Tween-80) was 93 % of control.

For `c1ccc(CNc2nn[nH]n2)cc1`, the T/C is, setting by setting: under setting [1], 96 % of control; under setting [2], 96 % of control; under setting [3], 94 % of control.
